Details of data set [1]: species or system cynomolgus monkeys. The settings on record: cynomolgus monkey, in vivo, sc, 0.2 mg/kg. As to the method: Subcutaneous (SC) dosing of the compounds in a vehicle of 0.1% bovine serum albumin in phosphate buffered saline solution was performed with male cynomolgus monkeys. […] Samples were obtained at 1, 4, 8, 12, 24, 48, 72, 96, 120, 168, 192, 240 and 336 hours after the single dose was administered.

Data set [2] deals with T1, human recombinant GIP receptor (Homo sapiens, UniProt P48546).
T1 sequence (P48546 22-466): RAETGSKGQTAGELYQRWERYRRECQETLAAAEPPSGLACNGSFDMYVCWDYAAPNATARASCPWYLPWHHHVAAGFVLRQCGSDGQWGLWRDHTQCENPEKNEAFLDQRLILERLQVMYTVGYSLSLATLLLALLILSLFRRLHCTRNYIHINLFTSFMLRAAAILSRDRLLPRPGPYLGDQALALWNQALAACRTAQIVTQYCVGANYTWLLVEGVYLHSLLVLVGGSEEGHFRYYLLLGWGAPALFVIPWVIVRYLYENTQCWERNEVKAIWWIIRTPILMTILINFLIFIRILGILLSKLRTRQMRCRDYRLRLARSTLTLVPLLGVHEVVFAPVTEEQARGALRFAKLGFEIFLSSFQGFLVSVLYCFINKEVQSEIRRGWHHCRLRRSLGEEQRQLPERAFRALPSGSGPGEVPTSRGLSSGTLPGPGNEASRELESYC
Kind of data set: TagLite binding assay, GIP receptor, without and with 2% HSA. The source says: (§1) Binding data for Compounds 15-25, for two human recombinant G protein coupled receptors, GLP-1 and GIP, was obtained using […]® binding assay and Epics Therapeutics cell lines. The binding assay was repeated in the presence of 2% human serum albumin (HSA). Compounds 16, 21, and 22 have an HSA ratio for the GLP-1 receptor of 7.1, 7.6, and 7.8, respectively. Compounds 15, 18, and 23 have an HSA ratio for the GIP receptor of 7.3, 4.3, and 6.4, respectively. A lower HSA ratio indicates greater binding affinity for the receptor than for albumin when compared to a compound with a greater HSA ratio.

In data set [3] the target is human recombinant GLP-1 receptor (Homo sapiens, UniProt P43220). The data set can be described thus: TagLite binding assay, GLP-1 receptor, without and with 2% HSA.
Sequence of human recombinant GLP-1 receptor (P43220 24-463): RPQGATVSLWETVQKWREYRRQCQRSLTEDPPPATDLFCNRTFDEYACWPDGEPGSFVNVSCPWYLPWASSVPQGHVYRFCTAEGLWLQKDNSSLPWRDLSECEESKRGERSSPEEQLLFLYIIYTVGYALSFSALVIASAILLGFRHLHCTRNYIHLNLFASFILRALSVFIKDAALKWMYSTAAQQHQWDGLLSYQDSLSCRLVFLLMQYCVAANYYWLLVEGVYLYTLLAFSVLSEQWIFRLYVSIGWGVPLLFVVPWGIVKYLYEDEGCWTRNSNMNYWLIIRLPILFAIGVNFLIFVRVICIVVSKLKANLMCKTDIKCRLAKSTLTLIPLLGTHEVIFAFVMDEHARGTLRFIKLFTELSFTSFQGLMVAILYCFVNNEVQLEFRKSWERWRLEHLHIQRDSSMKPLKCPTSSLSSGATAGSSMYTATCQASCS
Excerpt: as §1

Setting [4] is: 2% human serum albumin, read-out: GIP receptor IC50 2% HSA.
The mark [5] stands for this setting: no HSA, read-out: GIP receptor IC50 No HSA.
Setting [6] is: 2% human serum albumin, read-out: GLP-1 receptor IC50 2% HSA.
Where [7] appears, read: no HSA, read-out: GLP-1 receptor IC50 No HSA.

Results on 2 compounds are retold here after US12421282B2, “Compositions and methods for the treatment of metabolic and liver disorders” (priority 2021, dated 2025).

Each structure is given as a SMILES string. pIC50: −log10 of the molar value. Read-outs that look alike come from different tables or passages of the source. *1 amine or outer side, *2 acyl side, *3 side chain or, on linkers, in order; H or OH if unused. Where a SMILES comes first, the peptide text is derived from it. Side-chain parts run from the residue outwards. [ ]: non-standard residue; d: D form. The star is where a group is joined. Nonadecanoyl(19-PO3H2) = O=C(CCCCCCCCCCCCCCCCCCP(=O)(O)O)*; γGlu = O=C(O)[C@H](CCC(=O)[*:2])N[*:1]; AEEA = NCCOCCOCC(=O)O; Aib = CC(C)(N)C(=O)O

Regarding `CC[C@H](C)[C@H](NC(=O)[C@H](CC(C)C)NC(=O)[C@H](Cc1c[nH]c2ccccc12)NC(=O)[C@H](CCC(N)=O)NC(=O)[C@@H](NC(=O)[C@H](Cc1ccccc1)NC(=O)[C@H](C)NC(=O)[C@H](CCCCNC(=O)COCCOCCNC(=O)COCCOCCNC(=O)CC[C@H](NC(=O)CCCCCCCCCCCCCCCCCCP(=O)(O)O)C(=O)O)NC(=O)[C@H](CCC(N)=O)NC(=O)[C@H](C)NC(=O)[C@@H](NC(=O)[C@H](CCCCN)NC(=O)[C@H](CC(=O)O)NC(=O)[C@H](CC(C)C)NC(=O)C(C)(C)NC(=O)[C@@H](NC(=O)[C@H](CO)NC(=O)[C@H](Cc1ccc(O)cc1)NC(=O)[C@H](CC(=O)O)NC(=O)[C@H](CO)NC(=O)[C@@H](NC(=O)[C@H](Cc1ccccc1)NC(=O)[C@@H](NC(=O)CNC(=O)[C@H](CCC(=O)O)NC(=O)C(C)(C)NC(=O)[C@@H](N)Cc1ccc(O)cc1)[C@@H](C)O)[C@@H](C)O)[C@@H](C)CC)[C@@H](C)O)C(C)C)C(=O)N[C@@H](C)C(=O)NCC(=O)NCC(=O)N1CCC[C@H]1C(=O)N[C@@H](CO)C(=O)N[C@@H](CO)C(=O)NCC(=O)N[C@@H](C)C(=O)N1CCC[C@H]1C(=O)N1CCC[C@H]1C(=O)N1CCC[C@H]1C(=O)N[C@@H](CO)C(N)=O` [Compound 23] (H-Y[Aib]EGTFTSDYSI[Aib]LDKTAQK([AEEA-AEEA-γGlu-Nonadecanoyl(19-PO3H2)])AFVQWLIAGGPSSGAPPPS-NH2), in data set [1], the area under the curve AUC(0-inf) (commonly the area under the concentration-time curve extrapolated to infinity) came to 574 µg·h/mL; the AUC(0-t) (as a rule, the area under the concentration-time curve up to a stated or last time point) turned out to be 439 µg·h/mL; the concentration peaked (Cmax) at 2940 ng/mL; the time of peak concentration (Tmax) (as a rule, the time from dosing to the highest level) worked out at 34.7 h. In data set [1], the half-life (as a rule, how long it takes for the measured level to halve) is 159 h; the “mean half life as compared to tirzepatide (in words)” value is “more than twice an long as compared to tirzepatide”; the “mean half life longer compared to tirzepatide” value is “at least 50%”. The pIC50 (in general, the IC50 on a negative log10 scale, so that one unit is a factor of ten) in data set [2] (setting [4]) was 5.25. Moreover, the negative-log IC50 (pIC50) in data set [2] (setting [5]) was 6.06. Besides, the pIC50 in data set [3] (setting [6]) is 5.51. In addition, the pIC50 in data set [3] (setting [7]) was 6.40.
Regarding `CC[C@H](C)[C@H](NC(=O)[C@H](CC(C)C)NC(=O)[C@H](Cc1c[nH]c2ccccc12)NC(=O)[C@H](CCC(N)=O)NC(=O)[C@@H](NC(=O)[C@H](Cc1ccccc1)NC(=O)[C@H](C)NC(=O)[C@H](CCC(N)=O)NC(=O)[C@H](CCC(N)=O)NC(=O)[C@H](C)NC(=O)[C@@H](NC(=O)[C@H](CCCCNC(=O)COCCOCCNC(=O)COCCOCCNC(=O)CC[C@H](NC(=O)CCCCCCCCCCCCCCCCCCP(=O)(O)O)C(=O)O)NC(=O)[C@H](CC(=O)O)NC(=O)[C@H](CC(C)C)NC(=O)C(C)(C)NC(=O)[C@@H](NC(=O)[C@H](CO)NC(=O)[C@H](Cc1ccc(O)cc1)NC(=O)[C@H](CC(=O)O)NC(=O)[C@H](CO)NC(=O)[C@@H](NC(=O)[C@H](Cc1ccccc1)NC(=O)[C@@H](NC(=O)CNC(=O)[C@H](CCC(=O)O)NC(=O)C(C)(C)NC(=O)[C@@H](N)Cc1ccc(O)cc1)[C@@H](C)O)[C@@H](C)O)[C@@H](C)CC)[C@@H](C)CC)C(C)C)C(=O)N[C@@H](C)C(=O)NCC(=O)NCC(=O)N1CCC[C@H]1C(=O)N[C@@H](CO)C(=O)N[C@@H](CO)C(=O)NCC(=O)N[C@@H](C)C(=O)N1CCC[C@H]1C(=O)N1CCC[C@H]1C(=O)N1CCC[C@H]1C(=O)N[C@@H](CO)C(N)=O` [Compound 15] (H-Y[Aib]EGTFTSDYSI[Aib]LDK([AEEA-AEEA-γGlu-Nonadecanoyl(19-PO3H2)])IAQQAFVQWLIAGGPSSGAPPPS-NH2), in data set [1], the AUC(0-inf) was found to be 185 µg·h/mL, the AUC(0-t) was determined as 182 µg·h/mL, the Cmax (commonly the maximum level reached in the sampled fluid or tissue) worked out at 2520 ng/mL and the Tmax came to 9.33 h. For the same compound, the half-life in data set [1] was 60 h. Also, in data set [2] (setting [4]), the pIC50 is 6.09. The pIC50 in data set [2] (setting [5]) is 6.96. For the same compound, in data set [3] (setting [6]), the negative-log IC50 (pIC50) is 5.42. In data set [3] (setting [7]), the pIC50 was 6.46.
